The source of these data is patent publication US12338203B2 (TAISHO PHARMACEUTICAL CO., LTD., priority 2019, dated 2025).

T1 sequence (Q92633 whole entry): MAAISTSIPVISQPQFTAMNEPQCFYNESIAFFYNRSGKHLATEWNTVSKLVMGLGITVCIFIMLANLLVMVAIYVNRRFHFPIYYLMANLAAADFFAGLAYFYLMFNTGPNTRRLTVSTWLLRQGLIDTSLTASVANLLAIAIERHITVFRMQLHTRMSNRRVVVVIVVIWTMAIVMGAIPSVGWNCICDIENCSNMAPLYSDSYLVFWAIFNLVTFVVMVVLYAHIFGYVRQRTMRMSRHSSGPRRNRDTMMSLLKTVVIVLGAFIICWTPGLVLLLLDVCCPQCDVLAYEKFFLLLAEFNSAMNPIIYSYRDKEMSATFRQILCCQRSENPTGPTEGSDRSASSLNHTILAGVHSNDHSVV

The experiment has as its target T1, human LPAR1 (Homo sapiens, UniProt Q92633).
T1 construct: expressed in transfected cells
The experiment can be described thus: Test Example 1: antagonism against response of LPA-induced increase in intracellular Ca2+ concentration in RH7777 cells stably expressing human LPAR1. Format: cell-based. The conditions noted are these: RH7777 cells stably expressing human LPAR1; Fluo-4 fluorescence, FDSS6000; read-out: IC50 value (concentration producing 50% antagonism against response of LPA-induced increase in intracellular Ca2+ concentration) (converted). The method, then: (1) Preparation of RH7777 cells stably expressing human LPAR1
The human LPAR1 expression vector was transfected into RH7777 cells to acquire human LPAR1 expressing cells.
(2) Test of antagonism against response of LPA-induced increase in intracellular Ca^2+ concentration
Cells stably expressing human LPAR1 were used for a test of antagonism against response of LPA-induced increase in intracellular Ca^2+ concentration.
The cells were seeded onto the Poly-D-Lysine 96 well black plate and incubated overnight. […] 50 μL of the Basal Buffer (1×HBSS, 20 mM HEPES, 2.5 mM Probenecid, 0.05% BSA, 0.25 mg/mL Amaranth, pH 7.4) containing the test compound was added thereto, followed by incubation at 37° C. for 30 minutes. In FDSS6000 (Hamamatsu Photonics K.K.), LPAs were added, and the change in intracellular Ca^2+ concentration was detected using the fluorescence value of a wavelength of 540 nm by an excitation wavelength of 480 nm as an indicator. […] The Rmax under […] without the test compound was used as the control value. The Rmax under Basal Buffer stimulation with no LPAs or test compounds was used as the basal value.
The percentage (%) of increase in intracellular Ca^2+ concentration was calculated by dividing the value obtained by subtracting the basal value from Rmax in the presence of LPAs and each concentration of the test compound by the value obtained by subtracting the basal value from the control value. The concentration of each test compound was plotted on the X axis and the percentage (%) of increase in intracellular Ca^2+ concentration was plotted on the Y axis, and the IC50 value was calculated by nonlinear regression using XLfit.
In the case of `O=C(NC1(C(=O)O)CC(F)(F)C1)N(CCCCc1ccccc1)C1CCc2c(Cl)cc(Cl)cc21` (stereo not shown) [Example 5-116, 1-{[(4,6-Dichloro-2,3-Dihydro-1H-Inden-1-Yl) (4-Phenylbutyl) Carbamoyl]Amino}-3,3-Difluorocyclobutane-1-Carboxylic Acid], the IC50 is 22.2 nM.
Regarding `CCOc1cc(C(C)N(CCOCc2ccccc2)C(=O)NC2(C(=O)O)CC(OCC)C2)c(C)c(OCC)c1C1CC1` (stereo not shown) [Example 5-215], the IC50 was 1.01 nM.
For `CCOC1CC(NC(=O)N(CCOCc2ccccc2)C(C)c2cc(OC)c(C(C)=O)c(OC)c2C)(C(=O)O)C1` (stereo not shown) [Example 5-164] the value was 4.84 nM.
Turning to `CCOc1cc(C(C)N(CCO[C@@H](C)c2ccccc2)C(=O)NC2(C(=O)OC(C)(C)C)CC(F)(F)C2)cc(OCC)c1C(C)=O` (stereo partly shown) [Example 6-16], the IC50 was 13000 nM.
Regarding `CCOC(=O)C1(NC(=O)N(CCO[C@@H](C)c2ccccc2)C(C)c2cc(OCC)c(C(C)=O)c(OCC)c2Cl)CC(F)(F)C1` (stereo partly shown) [Example 6-12], the IC50 was 1270 nM.
As for `CCOc1cc([C@@H](C)N(CCC(F)(F)Cc2ccccc2)C(=O)NC2(C(=O)O)CCOCC2)c(Cl)c(OCC)c1C(C)=O` [Example 5-43], the IC50 was 22.1 nM.
Turning to `CCOc1cc(C(C)N(CCCCc2ccccc2)C(=O)NC2(C(=O)O)CC(F)(F)C2)cc(F)c1C(C)=O` (stereo not shown) [Example 1-71], the IC50 was 3.48 nM.
As to `CCOc1c(C2CC2)ccc([C@@H](C)N(CCO[C@H](C)c2cccc(Cl)c2)C(=O)NC2(C(=O)O)CCC2)c1C` [Example 4-180], the IC50 was 6.22 nM.
As for `CCOC1CC(NC(=O)N(CCOCc2ccccc2)[C@H](C)c2cc(OC)c(C(C)=O)c(OC)c2)(C(=O)O)C1` (stereo partly shown) [Example 5-125], the IC50 was 10.9 nM.
As for `COc1cc(C(C)N(CCO[C@@H](C)c2ccccc2)C(=O)NC2(C(=O)O)CCC2)cc(OC)c1C1CC1` (stereo partly shown) [Example 5-137], the IC50 is 8.18 nM.
`CCOc1cc([C@@H](C)N(CCC(F)(F)Cc2ccccc2)C(=O)NC2(C(=O)O)CC(OC)C2)c(Cl)c(OCC)c1C(C)=O` (stereo partly shown) [Example 5-41]: the IC50 was 10.3 nM.
`CCOc1cc(C(C)N(CCC(F)(F)Cc2ccccc2)C(=O)NC2(c3nn[nH]n3)CC(F)(F)C2)c(Cl)c(OCC)c1C(C)=O` (stereo not shown) [Example 10-12]: the IC50 is 21.5 nM.
Turning to `CCOc1cc([C@@H](C)N(CCCCc2ccccc2)C(=O)NC2(C(=O)O)CCOCC2)cc(OCC)c1C(C)=O` [Example 1-151], the IC50 was 3.57 nM.
Regarding `CCOc1cc([C@@H](C)N(CCO[C@@H](C)c2ccccc2)C(=O)N[C@]2(C(=O)O)C[C@@H](OC)C2)cc(OCC)c1C(C)=O` [Example 4-121], the IC50 is 3.35 nM.
With `CCOc1cc([C@@H](C)N(CCO[C@@H](C)c2ccccc2)C(=O)N[C@]2(C(=O)O)C[C@H](OC)C2)c(Cl)c(OCC)c1C(C)O` (single isomer, unassigned) [Example 5-60], the IC50 was 9.05 nM.
With `CCNc1cc([C@@H](C)N(CCCCc2ccccc2)C(=O)NC2(C(=O)O)CCC2)cc(OCC)c1C(C)=O` [Example 5-110], the IC50 was 1.78 nM.
Consider `CCOC1CC(NC(=O)N(CCOCc2ccccc2)C(C)c2cc(OC)c(C3CC3)c(OC)c2C)(C(=O)O)C1` (stereo not shown) [Example 5-165], for which the IC50 was 2.05 nM.
With `COc1cc(C(C)N(CCOCc2ccccc2)C(=O)NC2(C(=O)O)CCC2)c(C)c(OC)c1C` (stereo not shown) [Example 5-136], the IC50 was 30.7 nM.
With `CCOc1cc([C@@H](C)N(CCC(F)(F)Cc2ccccc2)C(=O)NC2(C(=O)O)CC(F)(F)C2)cc(OCC)c1C(C)=O` [Example 4-84], the IC50 was 2.88 nM.
On to `CCOc1cc([C@@H](C)N(CCCc2ccc(F)cc2)C(=O)NC2(C(=O)O)CC(F)(F)C2)cc(OCC)c1C` [Example 4-5], for which the IC50 is 6.91 nM.
`CCOc1cc([C@@H](C)N(CCCCc2ccccc2)C(=O)NC2(C(=O)NS(C)(=O)=O)CC(F)(F)C2)cc(OCC)c1C(C)=O` [Example 7-1, 1-({[(1R)-1-(4-Acetyl-3,5-Diethoxyphenyl)Ethyl](4-Phenylbutyl) Carbamoyl}Amino)-3,3-Difluoro-N-(Methanesulfonyl)Cyclobutane-1-Carboxamide]: the IC50 was 2.75 nM.
With `CCOc1c(C(C)=O)ccc([C@@H](C)N(CCO[C@H](C)c2ccccc2)C(=O)NC2(C(=O)O)CCOCC2)c1C` [Example 4-159], the IC50 is 6.22 nM.
In the case of `CCOc1cc([C@@H](C)N(CCCCc2ccccc2)C(=O)NC2(C(=O)O)CC(F)(F)C2)cc(OCC)c1C(C)O` (single isomer, unassigned) [Example 1-36], the IC50 is 1.04 nM.
For `CCOc1c(C)ccc([C@@H](C)N(CCOC(C)c2ccccc2)C(=O)NC2(C(=O)O)CC(F)(F)C2)c1C` (stereo partly shown) [Example 4-168] the value was 6.29 nM; for `CCOc1cc([C@@H](C)N(CCCCc2ccccc2)C(=O)NC2(CC(=O)O)CC2)cc(OCC)c1C(C)=O` [Example 1-145], 1.72 nM; for `CCOc1cc(C(C)N(CCOCc2ccccc2)C(=O)NC2(C(=O)O)CC(OCC)C2)c(Cl)c(OCC)c1C1CC1` (stereo not shown) [Example 5-221], 0.695 nM.
For the compound `CCOC(=O)C1(NC(=O)N(CCO[C@@H](C)c2ccccc2)C(C)c2cc(OCC)c(C(C)=O)c(OCC)c2)CC(OCC)C1` (stereo partly shown) [Example 6-9], the IC50 is 1010 nM.
As for `CCOc1cc([C@@H](C)N(CCOCc2ccccc2)C(=O)N[C@]2(C(=O)O)C[C@@H](OC)C2)c(Cl)c(OCC)c1C(C)=O` [Example 5-36], the IC50 is 1.62 nM.
As to `CCOc1c(C(C)=O)ccc([C@@H](C)N(CCC(F)(F)Cc2ccccc2)C(=O)NC2(C(=O)O)CC(F)(F)C2)c1C` [Example 4-88], the IC50 was 15.4 nM.
As to `CCOc1cc([C@@H](C)N(CCCCc2ccccc2)C(=O)NCC2(C(=O)O)CCOCC2)cc(OCC)c1C(C)=O` [Example 1-165], the IC50 was 64.8 nM.
For `COc1cc(C(C)N(CCO[C@@H](C)c2ccccc2)C(=O)NC2(C(=O)O)CCC2)c(C)c(OC)c1C` (stereo partly shown) [Example 5-140] the value was 10.8 nM.
As for `COc1cc(OC)cc(C(C)N(CCCCc2ccccc2)C(=O)NC2(C(=O)O)CC(F)(F)C2)c1` (stereo not shown) [Example 5-13], the figure is 4.32 nM; as for `CCOc1cc([C@@H](C)N(CCC(F)(F)Cc2ccccc2)C(=O)NC2(C(=O)O)CCOCC2)cc(OCC)c1C1CC1` [Example 4-96], 8.25 nM; as for `CCOc1cc([C@@H](C)N(CC(C)CCc2ccccc2)C(=O)NC2(C(=O)O)CC(F)(F)C2)cc(OCC)c1C` (stereo partly shown) [Example 4-38], 10.5 nM.
For the compound `CCOc1cc([C@@H](C)N(CCCCc2ccccc2)C(=O)NC2(c3nnn[nH]3)CC(F)(F)C2)cc(OCC)c1C(C)=O` [Example 10-7, N-[(1R)-1-(4-Acetyl-3,5-Diethoxyphenyl)Ethyl]-N′-[3,3-Difluoro-1-(1H-Tetrazol-5-Yl)Cyclobutyl]-N-(4-Phenylbutyl) Urea], the IC50 is 2.97 nM.
For the compound `O=C(NC1(C(=O)O)CCCC1)N(CCCCc1ccccc1)Cc1cccc(Cl)c1` [Example 5-2], the IC50 was 4520 nM.
With `CCOc1cc([C@@H](C)N(CCC(F)(F)Cc2ccccc2)C(=O)N[C@]2(C(=O)O)C[C@@H](OC)C2)cc(OCC)c1C1CC1` [Example 4-91], the IC50 is 1.97 nM.
For `CCOc1cc(C(C)N(CCCCc2ccccc2)C(=O)NC2(C(=O)O)CC(F)(F)C2)c2c(c1)N(CC)CC2` (stereo not shown) [Example 5-97] the value was 10.1 nM.
As to `CCOc1cc(C(C)N(CCCCc2ccccc2)C(=O)NC2(C(=O)NS(C)(=O)=O)CC(F)(F)C2)cc(OCC)c1C(C)O` (stereo not shown) [Example 7-2], the IC50 is 9.55 nM.
As for `CCOc1cc([C@@H](C)N(CCCCc2ccccc2)C(=O)NC2(C(=O)NS(N)(=O)=O)CC(F)(F)C2)cc(OCC)c1C(C)=O` [Example 7-4, 1-({[(1R)-1-(4-Acetyl-3,5-Diethoxyphenyl)Ethyl](4-Phenylbutyl) Carbamoyl}Amino)-3,3-Difluoro-N-Sulfamoylcyclobutane-1-Carboxamide], the IC50 is 3.42 nM.
For `CCOc1c(C(C)=O)ccc([C@@H](C)N(CCCCc2ccccc2)C(=O)NC2(C(=O)O)CC(OCC)C2)c1C` (stereo partly shown) [Example 1-103] the value was 4.57 nM; for `CCOc1cc([C@@H](C)N(CCCCc2ccccc2)C(=O)N[C@]2(C(=O)O)C[C@H](OC)C2)cc(OCC)c1C(C)=O` [Example 1-87, Cis-1-({[(1R)-1-(4-Acetyl-3,5-Diethoxyphenyl)Ethyl](4-Phenylbutyl) Carbamoyl}Amino)-3-Methoxycyclobutane-1-Carboxylic Acid], 1.37 nM.
In the case of `CCOc1cc(C(C)N(CCCCc2ccccc2)C(=O)NC(CCc2ccccc2)C(=O)O)cc(OCC)c1C` (stereo not shown) [Example 1-9], the IC50 was 129 nM.
As for `CCNc1cc([C@H](C)N(CCCCc2ccccc2)C(=O)NC2(C(=O)O)CC(F)(F)C2)cc(OCC)c1C(C)=O` [Example 5-109], the IC50 was 191 nM.
Turning to `CCOc1cc(OCC)cc(C(C)N(CCCCc2ccccc2)C(=O)NC2(C(=O)O)Cc3ccccc3C2)c1` (stereo not shown) [Example 5-11], the IC50 is 79.7 nM.
Regarding `CCOc1cc(C(C)N(CCOCc2ccccc2)C(=O)NC2(C(=O)O)CC2)c(C)c(OCC)c1C(C)=O` (stereo not shown) [Example 5-186], the IC50 was 2.63 nM.
